# Experimental data: patent publication US10106777B2, “Directed differentiation and maturation of pluripotent cells into hepatocyte like cells by modulation of Wnt-signalling pathway” (Takara Bio Europe AB, priority 2010, dated 2018)
# Tests used:
# [1] = test system: hES cells
# Procedure: FIGS. 6A and B. hES cells cultured with and without the GSK3 inhibitor were compared for their hepatic profile and homogeneity, as described in examples 12 and 13. Where a GSK3 inhibitor was added it was added at a later stage of the differentiation, according to FIG. 3B.
# A) Results from Activity Assay of CYP1A, 3A and 2C. […] The cells were 30 days, n=8. hPS vs hPS+BIO.B)
# [2] = test system: hiPS cells
# [3] = test system: Beta-catenin; experiment: Immunolocalisation of Beta-catenin in hES-HEP; type: cell-based, human
# Source text: C) Immunolocalisation of Beta-catenin and Dapi staining of hES-HEP-BIO (A) and hES-HEP+BIO (B) Beta-catenin is localized at the cell membrane in hES-HEP cultures not treated and treated with BIO. […] Day 21, 20×
# [4] = test system: hiPS cells; remark: listed apart in the source
# Procedure: FIGS. 5A and B. hiPS cells cultured with and without the GSK3 inhibitor were compared for their hepatic profile and homogeneity. Where a GSK3 inhibitor was added it was added at a later stage of the differentiation, according to FIG. 3. Derivation of hepatocytes from human induced pluripotent stem cells (hiPS).
# The cells were 30 days, n=8. hiPS vs hiPS+BIO.
# The undifferentiated hiPS cells were cultured in Activin A supplemented media to stimulate initial differentiation into partly differentiated cells. The hiPS derived partly differentiated cells were then passaged (to plates coated with 0.1% Gelatin or Matrigel 0.016 mM) and induced to hepatic progenitor cells and then to hepatocyte like cells in media with and without BIO supplementation, see FIG. 3 A)-B).
# The hiPS cells were cultured on mEFs until they were confluent. The cells were washed twice in PBS+/+ and treated with Activin A containing medium (See FIG. 3 a-b). The cells adapted an endoderm like morphology around day 3. When the majority of the cells were partly differentiated, the cells were exposed to media supplemented with factors inducing the cells into hepatocyte-like cells (See FIG. 3A)-B)) plus or minus BIO.
# [5] = test system: hESC derived hepatocytes (hESC-HEP)
# Procedure: Analysis are performed at day 16-18 (n=7-8), 20-21 (n=5) and 25 (n=2) respectively, mean±SD.
# MEF-cultured hESCs (hES cells cultured on feeder cells) were differentiated into hepatocyte-like cells according to examples 4, 8 and 9, thus comparing the absence of BIO, a GSK3-inhibitor (Example 4), to the influence of BIO during the maturation step (day 10-26) in maturation medium I and II (MM I and MM II)(Example 8 and 9 respectively). Before adding the first medium, ID day 0-2, the cultures were washed thoroughly with PBS, twice. The different mediums were prepared freshly and added day 0 (DE day 0-1), 2 (DE day 2-4), 4 and 7-10 every other to third day (VH1), 10-26 every second or third day (MMI or MM II). […] Cells were counted in a Bürker chamber and seeded out in 0.1% gelatine coated culture units (e.g. in 24-well plates) at a cell density of 150 to 250K cells per cm^2.
# At day 16, 18, 20, 21 and 25 hESC-HEP cultures were analyzed for cytochrome P450 1A activity by incubating the substrate Phenacetine to a final concentration of 26 μM in Phenol Red-free Williams Medium E, supplemented with 0.1% Penicilline-Streptomycin 2 mM L-Glutamine and 25 mM Hepes. […] Samples were analysed by Liquid chromatography-mass spectrometry (LC-MS) LCMS for presence of the metabolite Paracetamol, biotransformed by the cytochrome p450 enzymes Cyp1A2, 1A1.
# [6] = test system: hESC-HEP (cell-line SA002)
# Procedure: Qrt-PCR data is presented as fold change gene expression levels of HepG2 except for BSEP, which graph show fold change of calibrator. N=2-3, mean±SEM.
# hESC-HEP were derived from cell-line SA002 cultures on mEF-layer according to Example 9, FIG. 2, protocol iii (absence of BIO between day 3-10) or Example 11, FIG. 2, protocol iv (presence of 3.5 μM BIO between day 3-10). Total RNA was collected and isolated from the two hES-HEP cultures at day 21, 24, 26 and 28 by using RNA isolation kit from Qiagene. Quantitative reverse transcriptase PCR, QrtPCR, by using Taqman probes, was performed for the following hepatic marker genes: phase I drug metabolizing enzymes; CYP (cytochrome P450) 3A4, 3A5, 3A7, 2C9, phase II drug metabolizing enzymes GSTA1 (glutation-S-transferas A1), UGT2B7 (UDP glucuronosyltransferase 2B7), phase III, transporters; MRP2 (multi-drug residence protein 2), BSEP (bile salt export pump), and general hepatic markers; A1AT (alpha-1 antitrypsin), ALB (albumin) and TAT (tyrosine-amino transferas). All data was normalised to the house-keeping gene CREB. RNA from HepG2 cultures was included and data is presented as fold change of HepG2. […] Thus, BSEP expression is instead presented as fold change of a so called calibrator which contains RNA from different sources.
# [7] = test system: feeder free cultured hPS cells; experiment: Hepatic gene marker expression in hepatocyte-like cells from feeder free hESC; type: cell-based, human; conditions: with vs without GSK3 inhibitor
# Procedure: The split media (SM) gave the same levels as without split media. Two controls were used undifferentiated cells cultured feeder free (UD feeder free) and a perpetual cell line from a hepatocellular carcinoma (HepG2). The levels of AFP, KRT18 (Keratin 18) and KRT19 (Keratin 19) indicate that the cells are maintained in a stage where they still have the ability to proliferate. The cells were 23 days when they were analyzed, n=3.
# [8] = test system: hES cells; remark: listed apart in the source
# Procedure: Where a GSK3 inhibitor was added it was added at a later stage of the differentiation, according to FIG. 3B.
# B) Results of hepatic markers from Q-PCR of the same cells that were analysed by Activity assay (Q-PCR hPS+/−BIO) n=4.
# [9] = test system: UDP-glucuronyltransferases (UGTs); experiment: UGT metabolic activity in hESC-HEP from feeder-free hESC; type: cell-based, human
# Source text: FIG. 11. Relative expression levels of UGT hepatic metabolic markers in hESC-HEP generated with or without Wnt-signalling modulation by GSK-3 inhibitor BIO during endoderm to hepatocyte-like cell phase. FC=fold change relative expression, control set […] to 1 for each example. Graphs show expression levels in cells treated with one of three differentiation/maturation protocols (see example 21) and +/−GSK-3 inhibitor treatment for activity of UGTs on specific UGT substrates: (UGT1A1,[8-estradiol]); (UGT2B, [8-estradiol]; (UGT1A6, [1-Napthol]), (UGT1A9, [Propofol]), (UGT2B7, [Naloxone]). A non-specific control (Methylumbelliferone) was also included. n=number of experiments averaged to obtain results.
# Metabolic activity of hESC-HEP derived from hESCs cultured in feeder-free conditions (see Examples 12-14) was measured to determine the effect of GSK-3 inhibition during development and maturation by examining the activity of several UDP-glucuronyltransferases (UGTs) (enzymes that participate in the metabolism of many drugs). Activity of these UGTs was tested via several substrates, namely: β-estradiol (UGT1A1, 3-glucuronide), 1-naphthol (UGT1A6), propofol (UGT1A9), and naloxone (UGT2B7). A non-specific control (Methylumbelliferone) was also included (see FIGS. 12A-B). hESC-HEPs were differentiated essentially according to Example 12, up to day 7. […]
# [10] = test system: feeder free cultured hPS cells
# Procedure: Feeder free cultured hPS cells with and without the GSK3 inhibitor, as well as an alternative method where a split media as described in FIG. 3C were compared for their hepatic profile and homogeneity.
# A) Results from Activity assay of CYP1A and CYP3A measured by conversion of paracetamol and OH_midazolam respectively.
# hESCs cultured under feeder free conditions were incubated in media supplemented with Activin A. The cells were then induced into hepatocytes by differentiating them to hepatic progenitor cells and then to more mature hepatocyte like cells. Cells cultured with and without the GSK3 inhibitor were compared for their hepatic profile and homogeneity.
# [11] = test system: MEF cultured hESC; experiment: Cell death on addition of BIO at day 3 of differentiation; type: cell-based, human
# Procedure: (§1) Thus it appears advantageous to add GSK-3 inhibitors at a later stage of differentiation to avoid massive cell death seen when it is added at day 3. […] In addition, GSK3 inhibitors at this stage may contribute/stimulate to hepatic induction of the competent endoderm.
# [12] = test system: hESC derived hepatocytes (hESC-HEP); experiment: Morphological observation of purity and homogeneity of hESC-HEP cultures; type: cell-based, human
# Procedure: FIGS. 8A-E. Differentiation of hESC derived hepatocytes in the presence of GSK3 inhibitor from day 3 purifies hepatocytes from other cell types.
# A-C show hESC-HEP at day 17, differentiated by protocol i or ii according to FIG. 2. D-E show hESC-HEP at day 15, differentiated by protocol iii or vi according to FIG. 2,
# B) 1 μM BIO day 3-9, protocol ii.
# C) 5 μM BIO day 3-9, protocol ii.
# D) 0 μM BIO day 3-9, 1.5 μM BIO day 10-15 protocol iii,
# E) 3.5 μM BIO day 3-9, 1.5 μM BIO day 10-15 protocol vi.
# A and B show hESC-HEP cultures which are over grown by another cell type where as in C the majority of cells in the culture are hepatocyte-like cells. E represent a purer hESC-HEP culture than D. White arrow: hepatocyte-like cells, black arrow: other cell type than hepatocyte-like cells. Scale bar: 100 μm.
# as §1
# [13] = test system: hESC-HEP; experiment: Hepatic marker expression in hESC-HEP, GSK-3 inhibitors at later stage (from day 10); type: cell-based, human; conditions: GSK-3 inhibitor from day 10, compared to BIO
# Source text: FIGS. 12A and B. Relative expression levels of hepatic markers in hESC-HEP generated with modulation of Wnt-signalling by GSK-3 inhibitors other than BIO during later maturation period (day 10 onwards). Treatments shown include: hESC-HEP (negative control; cells never exposed to GSK-inhibitor during differentiation), BIO, SB216763, Kenpaullone, Indirubin-3-O; also included is a second negative control undifferentiated hESC cells (hESC). […] GSK-3 inhibitors were present only during later differentiation (from day 10 onwards); also included is a further negative control graph showing the expression levels of a housekeeping gene (Creb) across the various samples.
# Furthermore, differentiating cells were exposed to GSK-3 inhibitors only during later (from day 10) stages of differentiation. Three alternative GSK-3 inhibitors were tested alongside BIO to determine effectiveness in inducing hepatic marker expression (SB216763, Kenpaullone and Indirubin-3-O) and results were compiled both for Phase I and Phase II enzymes and hepatic markers, with two negative controls (hESC-HEP not exposed to GSK-3 inhibition during differentiation, and undifferentiated hESC cells). […]
# [14] = test system: hESC-HEP; experiment: Hepatic marker expression in hESC-HEP, GSK-3 inhibitors at mid and late stage; type: cell-based, human; conditions: Kenpaullone 0.23 μM days 3-9, 2.5 μM days 10-23, compared to BIO
# Source text: FIGS. 13A and B. Relative expression levels of hepatic markers in hESC-HEP generated with modulation of Wnt-signalling by GSK-3 inhibitors other than BIO during both mid (days 3-9) and late stage (days 10-23) differentiation. Treatments shown include: hESC-HEP (negative control; cells never exposed to GSK-inhibitors), BIO, SB216763, Kenpaullone, Indirubin-3-O; also included is a second negative control undifferentiated hESC cells (hESC); also included is a further negative control graph showing the expression levels of a housekeeping gene (Creb) across the various samples.
# Differentiating cells were exposed to GSK-3 inhibitors during both mid (days 3-9) and late (from day 10-23) stages of differentiation. Three alternative GSK-3 inhibitors were tested alongside BIO to determine effectiveness in inducing hepatic marker expression (SB216763, Kenpaullone and Indirubin-3-O) and results were compiled both for Phase I enzymes and Phase II enzymes and hepatic markers, with two negative controls (hESC-HEP not exposed to GSK-3 inhibition during differentiation, and undifferentiated hESC cells). During days 3-9 of differentiation, concentrations of GSK-3 inhibitors used were as follows: BIO 3.5 μM, SB216763 34 nM, Kenpaullone 0.23 μM and Indirubin-3-O 22 nM. […]
# [15] = test system: hESC-HEP cultures (cell line SA002); experiment: Functional CYP1A activity in hESC-HEP cultures with NaB together with BIO; type: cell-based, human; conditions: NaB 1 mM together with BIO 1.4 μM at day 21-25, vs parallel cultures without NaB
# Procedure: FIG. 9. […] Analysis is performed day 24-25, n=1.
# Cell line SA002 from mEF cultures was used as starting material.
compound,measurement,setting,value
"O=C1Nc2cc(Br)ccc2/C1=C1/Nc2ccccc2/C1=N\O [BIO, (2′Z,3′E)-6-Bromoindirubin-3′-oxime]",activity of CYP1A,[1],increased
same,activity of CYP2C,[1],increased
same,activity of CYP3A,[1],increased
same,"expression of CYP1A1, CYP1A2, CYP3A4 and CYP7A1",[2],clear increase
same,levels of CYP2C9,[2],maintained high
same,"mRNA of CD44, AFP, CK18, CK19, CYP1A1, CYP1A2, CYP3A4, CYP2C9, CYP7A1, Albumin, OATP2, A1AT, MRP2",[2],Increased
same,"mRNA of CYP1A1, CYP1A2, CYP3A4, CYP2C9, CYP7A1, MRP2, CD44, AFP, CK18, CK19",[2],Increased
same,AAT,"[2]; hiPS+/−BIO, n=4",maintained on a high level
same,AFP levels,"[2]; hiPS+/−BIO, n=4",decreased
same,Albumin,"[2]; hiPS+/−BIO, n=4",maintained at a level high compared to known protocols
same,"transporters such as MRP2, Oct-1, GSTA1, BCEP and OATP2","[2]; hiPS+/−BIO, n=4, vs HepG2",maintained at levels significantly higher than HepG2
same,"maturity of hiPS derived cells (Q-PCR, immunocytochemistry, Activity Assay)",[2]; media supplemented with BIO vs absence of GSK-3 inhibitor,became more mature
same,Beta catenin in the cytoplasm and nuclei,"[3]; BIO treated hES-HEP cultures, Day 21",commonly observed
same,beta-catenin localisation,[3]; upon BIO treatment,translocate from cell membrane to nucleus
same,CYP1A activity,[4],Increased
same,CYP3A activity,[4],Increased
same,activity of CYP1A,[4],increased
same,activity of CYP3A,[4],increased
same,metabolic activity (FIG. 5A),[4],greater metabolic activity
same,Cyp1A activity over time,[5],increased during time
same,A1AT expression,[6]; BIO supplemented at day 3,strong increase at day 28
same,ALB expression,[6]; BIO supplemented at day 3,decreased at day 26
same,GSTA1 and UGT2B7 expression,[6]; BIO supplemented at day 3,increased expression
same,MRP2 and BSEP expression,[6]; BIO supplemented at day 3,increased expression
same,TAT expression levels,"[6]; with BIO vs without BIO, all days",higher expression levels
same,hepatic gene marker expression (FIG. 4B),[7],higher
same,"expression of CYP1A1, CYP1A2, CYP3A4, CYP2C9 and CYP7A1",[8],clear increase
same,AAT,"[8]; hPS+/−BIO, n=4",increase
same,"transporters such as MRP2, Oct-1, GSTA1, BCEP and OATP2","[8]; hPS+/−BIO, n=4",maintained at levels showing a maturation
same,increase of UGT1A1 activity,[9]; +/− BIO 1.4 μM days 14-25,much greater than for others
same,activity of most of the UGTs,"[9]; +/− BIO 1.4 μM days 14-25, three differentiation protocols",greater activity
same,metabolic activity (FIG. 4A),[10],higher
same,cell death,"[11]; 3.5 μM BIO from day 3, compared to 5 μM BIO",less dramatic cell death
same,cell death,[11]; 5 μM BIO day 3,dramatic cell death
same,culture purity (morphology),[12]; 3.5 μM BIO from day 3 (Example 11) vs untreated (Example 9),more purified hESC-HEP compared to untreated cultures
same,culture homogeneity (morphology),"[12]; 5 μM BIO from day 3, surviving cells passaged day 4",highly purified and homogenous culture of hESC-HEP
same,final purity of the cell populations,[12]; BIO addition at a later stage (day 10+),greater final purity
same,culture homogeneity (morphology),"[12]; low concentration (1 μM) of BIO, day 3-9",highly heterogeneous cultures where hardly any hepatocyte-like cells were observed
"O=C1Cc2c([nH]c3ccc(Br)cc23)-c2ccccc2N1 [Kenpaullone, 9-Bromo-7,12-dihydro-indolo[3,2-d][1]benzazepin-6(5H)-one]",expression of most of the Phase I enzymes and hepatic markers,[13],higher levels of expression than BIO
same,expression of most of the Phase I enzymes,[14],higher levels of expression than BIO
"CCCC(=O)[O-].[Na+] [NaB, Sodium Butyrate]",CYP1A activity,[15],increased
